Results: patent publication US11672810B2, “Therapeutics and methods for predicting and overcoming endocrine resistance in breast cancer” (LUNELLA BIOTECH, INC., priority 2019, dated 2023)

Legend:
[1] = tested on: MCF7-GFP cells; test: Drug treatment of fluorescently-labeled MCF7-fibroblast co-cultures vs mono-cultures (GFP fluorescence, plate-reader); assay type: cell-based, human; conditions: 72 hours; for Sensitivity of MCF7-GFP cells in co-culture with fibroblasts relative to mono-cultures: at 500 μM drug, GFP fluorescence, hTERT-BJ1-RFP fibroblast co-culture vs MCF7-GFP mono-culture
Description: To directly test this hypothesis, a new assay system may be used to monitor the sensitivity of cancer cells to drug treatment, in the presence or absence of fibroblasts. For this purpose, hTERT-BJ1-fibroblasts expressing RFP (red fluorescent protein) and MCF7 cells expressing GFP (green fluorescent protein) were generated. Representative images of these mono-cultures are shown in FIGS. 14A (hTERT-BJ1-RFP) and 14B (MCF7-GFP). The hTERT-BJ1-fibroblasts expressing RFP and MCF7 cells expressing GFP were generated by lentiviral transduction. RFP, red fluorescent protein; GFP, green fluorescent protein.
Validation via drug treatment of fluorescently-labeled MCF7-fibroblast co-cultures: hTERT-BJ1-RFP cells and MCF7-GFP cells were first generated by stable transduction with lenti-viral vectors. Then, these cells were plated into clear flat bottom 96-well black microplates (Corning; CLS3603). Mono-cultures were generated by plating either hTERT-BJ1-RFP (8,000 cells/well) or MCF7-GFP cells (8,000 cells/well). In parallel, co-cultures were generated by co-plating hTERT-BJ1-RFP (6,000 cells/well) with MCF7-GFP (2,000 cells/well). The next day, the plates were treated with either Doxycycline or Azithromycin (or vehicle controls) and were incubated for 72 hours at 37° C. The cell culture plates were then read with a plate-reader at 545/590 nm (for RFP) and at 490/510 nm (for GFP). Background readings were subtracted from the fluorescent signal and data were then normalized to controls.

[2] = tested on: MCF7-fibroblasts co-cultures; conditions: MCF7-fibroblast co-cultures; Tamoxifen, Fulvestrant; cited from earlier work

Row | SMILES | Sensitivity of MCF7-GFP cells in co-culture with fibroblasts relative to mono-cultures [1] | Concentration at which increased sensitivity of MCF7-GFP cells in co-culture was first observed ([1]; not observed at 50 μM) | Effect on resistance of co-cultures to apoptosis induced by hormonal therapies [2]
1 | CC[C@H]1OC(=O)[C@H](C)[C@@H](O[C@H]2C[C@@](C)(OC)[C@@H](O)[C@H](C)O2)[C@H](C)[C@@H](O[C@@H]2O[C@H](C)C[C@H](N(C)C)[C@H]2O)[C@](C)(O)C[C@@H](C)CN(C)[C@H](C)[C@@H](O)[C@]1(C)O [Azithromycin] | ~8 fold |  | 
2 | C[C@H]1c2cccc(O)c2C(=O)C2=C(O)[C@]3(O)C(=O)C(C(N)=O)=C(O)[C@@H](N(C)C)[C@@H]3[C@@H](O)[C@@H]21 [Doxycycline] | ~5 fold | 100 µM | 
3 | CN(C)C(=N)N=C(N)N [Metformin] |  |  | reversed
